# Tests used:
# MK-801-treated mice [1] = experiment: Acoustic startle response task (ASRT), prepulse inhibition; format: in vivo
# Experimental: (§1) The mice were housed in the University Animal Care Unit for one week prior to the experiment. Each cage housed 10 mice, and all mice had unlimited access to water and food. […] The Institutional Animal Care and Use Committee of Kyung Hee University approved the mouse experimental protocols (approval number: KHUASP-22-530).
# The ASRT was conducted using SR-LAB startle chambers (San Diego Instruments, San Diego, CA, USA), consisting of a box that can lightly confine the mice, a system that can generate sound stimuli regularly, equipment that can measure animal movements, a program that can digitize the measured stimuli, and a source and speaker that can provide sound. The ASRT sessions included three trials: non-stimulus (PPI-1), startle (pulse alone, PPI-2), and prepulse (prepulse + pulse, PPI-3). The PPI-1 trial consisted of background noise only. The PPI-2 trial consisted of constant noise (80−120 dB, five sections) for 40 ms. The PPI-3 trial consisted of a noise prepulse ([…], which are 3, 6, 12, and 16 dB above the background noise, respectively) for 20 ms, a delay for 80 ms, and a 120 dB startle pulse for 40 ms. The percentage score for PPI was calculated as follows: % PPI = [(PPI-2 – PPI-3)/(PPI-2)] × 100(%).
# [2] = system: ferrous-treated rat brain homogenates; experiment: Lipid peroxidation assay (TBARS); format: biochemical; conditions: rat brain homogenate; mean ± SD of triplicate experiments
# Experimental: Whole brain homogenates from male Sprague-Dawley rats (6 months old) were prepared according to procedures described in previous studies. […] After 1 h of incubation at 37 °C, the stop solution was added to the reaction mixture. After incubation in boiling water for 1 h, the reaction mixture was extracted with normal butanol and centrifuged (1300× g for 10 min).
# hMAO-A = target: T1, hMAO-A (Homo sapiens, UniProt P21397); experiment: In vitro hMAO-inhibitory assay (MAO-Glo), hMAO-A; format: biochemical; conditions: mean ± SD of triplicate experiments
# T1 sequence (P21397 1-527): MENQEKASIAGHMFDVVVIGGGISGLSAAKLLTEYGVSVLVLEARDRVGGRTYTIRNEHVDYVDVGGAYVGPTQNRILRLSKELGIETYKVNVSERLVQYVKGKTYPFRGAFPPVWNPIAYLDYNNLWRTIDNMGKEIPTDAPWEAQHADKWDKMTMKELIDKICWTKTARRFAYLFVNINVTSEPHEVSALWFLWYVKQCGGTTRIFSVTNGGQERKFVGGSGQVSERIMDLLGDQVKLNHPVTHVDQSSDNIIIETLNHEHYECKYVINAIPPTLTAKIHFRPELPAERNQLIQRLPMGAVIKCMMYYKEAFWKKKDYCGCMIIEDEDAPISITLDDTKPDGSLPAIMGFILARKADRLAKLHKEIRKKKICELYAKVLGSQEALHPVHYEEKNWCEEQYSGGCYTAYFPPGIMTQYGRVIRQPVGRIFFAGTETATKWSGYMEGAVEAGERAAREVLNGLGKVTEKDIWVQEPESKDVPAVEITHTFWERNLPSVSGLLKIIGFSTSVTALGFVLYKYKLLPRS
# Excerpt: (§2) A homogeneous luminescent assay using the MAO-Glo™ assay kit (Promega, Madison, WI, USA) was used to evaluate the hMAO-inhibitory activity of icariin and its metabolites according to the manufacturer’s protocol.
# hMAO-B = target: T2, hMAO-B (Homo sapiens, UniProt P27338); experiment: In vitro hMAO-inhibitory assay (MAO-Glo), hMAO-B; format: biochemical; conditions: mean ± SD of triplicate experiments
# T2 sequence (P27338 1-520): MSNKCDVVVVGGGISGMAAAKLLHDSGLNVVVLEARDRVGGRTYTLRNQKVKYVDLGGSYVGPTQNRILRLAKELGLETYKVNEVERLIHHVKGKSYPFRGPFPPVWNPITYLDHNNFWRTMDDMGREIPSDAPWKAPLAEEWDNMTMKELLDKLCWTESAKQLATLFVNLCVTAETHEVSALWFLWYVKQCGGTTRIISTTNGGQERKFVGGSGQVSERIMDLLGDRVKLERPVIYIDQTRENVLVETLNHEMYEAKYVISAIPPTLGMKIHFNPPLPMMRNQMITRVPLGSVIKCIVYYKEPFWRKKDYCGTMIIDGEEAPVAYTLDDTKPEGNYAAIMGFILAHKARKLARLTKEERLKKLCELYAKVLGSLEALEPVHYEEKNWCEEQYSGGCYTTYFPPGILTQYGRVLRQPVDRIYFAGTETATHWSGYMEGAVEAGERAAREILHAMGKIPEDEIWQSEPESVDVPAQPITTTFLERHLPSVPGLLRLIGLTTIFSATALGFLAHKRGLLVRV
# Excerpt: as §2
# MK-801-treated mice [3] = experiment: Social novelty preference test (SNPT); format: in vivo
# Excerpt: as §1
# Three chambers in a rectangular Plexiglas box (w × d × h: 94 × 28 × 30 cm) were used for the SNPT. The left, right, and central chambers were all joined together by openings (w × d: 6 × 28 cm). On the center of the left and right chambers, an iron muntin cylinder lockup (h × d: 11 × 12 cm) was installed. A test mouse was allowed to interact with another mouse that was trapped in the cylinder lockup. A test mouse was placed in the middle chamber during the acclimatization trial (trial-1, 10 min) and was allowed to freely explore all three compartments through the apertures. A mouse that was younger than the test mouse was placed in a lockup in the first sociability experiment (trial-2) following trial-1, while the other lockup remained. The test mouse was taken to the center compartment and allowed to wander around. The second sociability trial (trial-3) was performed immediately after trial-2. A new mouse that was younger than the test mouse was put in the empty cell during trial-3 (10 min), and the test mouse was put into an empty lockup and allowed to explore.
# M4 mACh receptor (M4R) [4] = target: T3, M4 mACh receptor (M4R) (Homo sapiens, UniProt P08173); experiment: cAMP agonist assay (M4R); conditions: 100 μM
# T3 sequence (P08173 1-479): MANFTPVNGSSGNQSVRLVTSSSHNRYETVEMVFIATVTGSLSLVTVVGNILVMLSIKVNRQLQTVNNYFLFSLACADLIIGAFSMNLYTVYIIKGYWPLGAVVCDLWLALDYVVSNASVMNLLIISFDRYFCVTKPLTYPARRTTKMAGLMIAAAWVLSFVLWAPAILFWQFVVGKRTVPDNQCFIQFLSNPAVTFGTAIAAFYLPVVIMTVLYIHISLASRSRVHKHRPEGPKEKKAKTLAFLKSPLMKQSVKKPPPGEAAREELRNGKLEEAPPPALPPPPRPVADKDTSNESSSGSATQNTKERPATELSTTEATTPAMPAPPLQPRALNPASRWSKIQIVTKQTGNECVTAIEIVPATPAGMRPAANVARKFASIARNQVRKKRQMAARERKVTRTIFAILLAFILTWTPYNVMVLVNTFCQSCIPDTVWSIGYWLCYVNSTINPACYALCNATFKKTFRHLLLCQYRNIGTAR
# [5] = target: T4, vasopressin 1A receptor (V1AR) (Homo sapiens, UniProt P37288); format: cell-based; conditions: 100 μM; stimulus AVP (10 nM)
# T4 construct: host or cells: CHO-K1
# Excerpt: a All products including cell-line and reagents were provided by Cerep (Cel le L'Evescault, France).
# Human D3R = target: T5, Human D3R (Homo sapiens, UniProt P35462); format: binding; conditions: 50 μM
# T5 construct: expressed in transfected cells; host or cells: CHO-K1 (membrane homogenates)
# Experimental: (§3) Next, 10 μM (f.c.) (+)-butaclamol (for D3R) and 1 μM (f.c.) atropine (for M2R) were used to detect nonspecific binding in the respective assays. The binding affinity of a test compound was calculated as the inhibition (%) of control (radioligand)-specific binding.
# [6] = design: method as in PMID 31844591; conditions: cited from earlier work
# M4 mACh receptor (M4R) [7] = target: T3, M4 mACh receptor (M4R); experiment: cAMP antagonist assay (M4R); conditions: read-out: Antagonist effect (%) M4 (inhibition of the control agonist response)
# [8] = target: T6, muscarinic acetylcholine M2 receptor (M2R) (Homo sapiens, UniProt P08172); conditions: 100 μM; control agonist 300 nM ACh
# T6 sequence (P08172 1-466): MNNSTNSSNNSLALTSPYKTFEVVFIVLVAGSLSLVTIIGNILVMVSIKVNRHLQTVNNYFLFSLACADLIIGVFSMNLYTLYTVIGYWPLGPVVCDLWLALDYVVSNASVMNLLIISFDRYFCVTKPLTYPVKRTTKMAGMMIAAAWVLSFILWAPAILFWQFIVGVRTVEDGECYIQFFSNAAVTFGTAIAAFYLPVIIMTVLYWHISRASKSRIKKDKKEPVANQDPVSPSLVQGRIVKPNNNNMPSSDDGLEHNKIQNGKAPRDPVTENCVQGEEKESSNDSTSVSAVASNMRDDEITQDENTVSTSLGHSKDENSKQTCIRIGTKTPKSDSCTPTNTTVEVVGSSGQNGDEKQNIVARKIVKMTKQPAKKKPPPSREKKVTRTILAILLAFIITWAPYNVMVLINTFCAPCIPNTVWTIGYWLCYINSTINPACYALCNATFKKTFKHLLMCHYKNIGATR
# [9] = target: T6, muscarinic acetylcholine M2 receptor (M2R); experiment: Radioligand binding assay ([3H]AF-DX 384, CHO-M2R membrane homogenates); design: host or cells: CHO-K1
# Experimental: as §3
# T4 sequence (P37288 whole entry): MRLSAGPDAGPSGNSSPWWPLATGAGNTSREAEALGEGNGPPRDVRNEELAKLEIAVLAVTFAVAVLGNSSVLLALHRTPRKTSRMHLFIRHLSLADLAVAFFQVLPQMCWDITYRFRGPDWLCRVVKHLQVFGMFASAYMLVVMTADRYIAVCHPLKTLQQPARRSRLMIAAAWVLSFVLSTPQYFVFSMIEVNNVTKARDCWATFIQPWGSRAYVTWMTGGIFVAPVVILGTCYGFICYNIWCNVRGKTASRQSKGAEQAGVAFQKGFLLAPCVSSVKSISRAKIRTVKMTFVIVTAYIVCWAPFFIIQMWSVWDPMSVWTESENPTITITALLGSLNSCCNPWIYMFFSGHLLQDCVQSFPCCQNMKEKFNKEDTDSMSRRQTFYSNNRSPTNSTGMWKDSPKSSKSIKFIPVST
# T5 sequence (P35462 whole entry): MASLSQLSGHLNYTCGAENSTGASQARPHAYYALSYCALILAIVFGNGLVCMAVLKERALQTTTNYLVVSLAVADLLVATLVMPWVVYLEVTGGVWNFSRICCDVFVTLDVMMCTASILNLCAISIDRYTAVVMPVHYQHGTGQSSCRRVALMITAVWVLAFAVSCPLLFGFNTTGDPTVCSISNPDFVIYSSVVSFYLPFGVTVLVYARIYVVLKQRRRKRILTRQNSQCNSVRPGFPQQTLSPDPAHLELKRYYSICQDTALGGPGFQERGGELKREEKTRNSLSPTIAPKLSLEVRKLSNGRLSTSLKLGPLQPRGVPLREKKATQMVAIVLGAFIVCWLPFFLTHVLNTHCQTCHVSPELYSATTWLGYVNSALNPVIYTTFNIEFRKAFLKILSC
compound,measurement,setting,value
"COc1ccc(-c2oc3c(CC=C(C)C)c(O[C@@H]4O[C@H](CO)[C@@H](O)[C@H](O)[C@H]4O)cc(O)c3c(=O)c2O[C@@H]2O[C@@H](C)[C@H](O)[C@@H](O)[C@H]2O)cc1 [Icariin, icariin]",effect on MK-801-induced PPI deficits,"MK-801-treated mice [1]; 3 and 10 mg/kg, p.o., at +12 and +16 dB above the background noise",significantly reversed
same,IC50,[2],301 ± 2.16 µM
same,IC50,hMAO-A,422 ± 7.07 µM
same,IC50,hMAO-B,> 500 µM
same,effect on MK-801-induced social interaction deficits,"MK-801-treated mice [3]; 3 and 10 mg/kg, p.o.",significantly reversed
same,agonist effect assay on M4R,M4 mACh receptor (M4R) [4],opposite effect to that of icariside II
"Cc1c(C)c2c(c(C)c1O)CCC(C)(C(=O)O)O2 (centres unmarked) [Trolox, reference compound]",IC50,[2],32.3 ± 3.21 µM
icariside II,effect on MK-801-induced PPI deficits,"MK-801-treated mice [1]; 1, 3, and 10 mg/kg, p.o.",no significant effects
same,IC50,[2],70.4 ± 2.04 µM
same,antagonist effect on V1AR,[5],42.0%
same,effect on MK-801-induced social interaction deficits,"MK-801-treated mice [3]; 1, 3, and 10 mg/kg, p.o.",significantly reversed
same,radioligand binding to the target binding site (D3R),Human D3R,almost completely blocked
same,agonist effect assay on M4R,M4 mACh receptor (M4R) [4],has an agonist effect
"COc1ccc(-c2oc3c(CC=C(C)C)c(O)cc(O)c3c(=O)c2O)cc1 [Icaritin, icaritin]",effect on MK-801-induced PPI deficits,"MK-801-treated mice [1]; 1, 3, and 10 mg/kg, p.o.",no significant effects
same,IC50,[2],81.3 ± 3.09 µM
same,blood-brain barrier penetration,[6],could penetrate the blood-brain barrier (BBB) readily
same,IC50,hMAO-A,> 500 µM
same,inhibition at 100 µM,M4 mACh receptor (M4R) [7],32.4%
same,IC50,hMAO-B,> 500 µM
same,Antagonist effect (%) M2,[8],54.55%
same,Radioligand specific binding (%) (M2R),[9]; 100 μM,81.95%
same,Radioligand specific binding (%) (M2R),[9]; 150 μM,64.00%
same,blocked radioligand binding to the target binding site (M2R),[9]; 150 μM,36%
same,effect on MK-801-induced social interaction deficits,"MK-801-treated mice [3]; 3 and 10 mg/kg, p.o.",significantly reversed
C[C@]12N[C@H](Cc3ccccc31)c1ccccc12 [MK-801],acoustic startle amplitude,"MK-801-treated mice [1]; 0.2 mg/kg alone (i.p.), at 120 dB",significantly increased
same,prepulse inhibition (PPI),"MK-801-treated mice [1]; 0.2 mg/kg alone (i.p.), at +3, +6, +12, and +16 dB above the background noise (70 dB)",decreased
same,amount of time spent in the chamber with the unknown mouse,"MK-801-treated mice [3]; alone, 0.2 mg/kg, i.p., compared with control group",considerably reduced
"O=C1CCc2ccc(OCCCCN3CCN(c4cccc(Cl)c4Cl)CC3)cc2N1 [aripiprazole, reference compound]",effect on MK-801-induced PPI deficits,"MK-801-treated mice [1]; 1 mg/kg, i.p., at +12 and +16 dB above the background noise",significantly reversed
same,effect on MK-801-induced social interaction deficits,"MK-801-treated mice [3]; 1 mg/kg, i.p.",significantly reversed

# — article PMC10647531, “Effects of Icariin and Its Metabolites on GPCR Regulation and MK-801-Induced Schizophrenia-Like Behaviors in Mice” (Molecules, 2023)
